Results reported in ChEMBL document CHEMBL5321216, “Discovery of bipyridine amide derivatives targeting pRXRα-PLK1 interaction for anticancer therapy” (Eur J Med Chem, 2023).
Calls of active or inactive are those of the source. The calls are words filed in the database; no cut-off is given here.

What was measured:
[1] = tested on: A549; experiment: Antiproliferative activity against wild type human A549 cells assessed as inhibition of cell growth incubated for 72 hrs by MTT assay; type: functional, cell-based; conditions: A549, 72 h
[2] = tested on: MDA-MB-231; experiment: Antiproliferative activity against human MDA-MB-231 cells assessed as inhibition of cell proliferation incubated for 72 hrs by MTT assay; type: functional, cell-based; conditions: MDA-MB-231, 72 h
[3] = tested on: MDA-MB-231; experiment: Induction of apoptosis in human MDA-MB-231 cells assessed as live cells at 31.25 nM incubated for 24 hrs by annexin V-FITC/PI staining based flow cytometry analysis (reference value: 91.3%); type: functional
[4] = tested on: MDA-MB-231; experiment: Antitumor activity against human MDA-MB-231 cells xenografted in BALB/c nude mouse assessed as tumor growth inhibition at 25 mg/kg/day, ip administered for 15 days and measured once a day relative to control; type: functional; conditions: MDA-MB-231, 360 h, time 15 day, read-out: TGI
[5] = tested on: A549; experiment: Induction of apoptosis in human A549 cells assessed as dead cells at 31.25 nM incubated for 24 hrs by annexin V-FITC/PI staining based flow cytometry analysis (reference value: 0.75%); type: functional
[6] = tested on: A549; experiment: Induction of cell cycle arrest in human A549 cells assessed as accumulation of cells at G1 phase at 31.25 nM incubated for 12 hrs by flow cytometry analysis (reference value: 59.57%); type: functional
[7] = tested on: MDA-MB-231; experiment: Induction of cell cycle arrest in human MDA-MB-231 cells assessed as accumulation of cells at G2 phase at 125 nM incubated for 12 hrs by flow cytometry analysis (reference value: 15.91%); type: functional
[8] = biological target: T1, Retinoic acid receptor RXR-alpha (Homo sapiens, UniProt P19793); experiment: Binding affinity to RXRalpha LBD (unknown origin) assessed as increase in response unit by measuring dissociation constant by SPR analysis
T1 sequence (P19793 whole entry): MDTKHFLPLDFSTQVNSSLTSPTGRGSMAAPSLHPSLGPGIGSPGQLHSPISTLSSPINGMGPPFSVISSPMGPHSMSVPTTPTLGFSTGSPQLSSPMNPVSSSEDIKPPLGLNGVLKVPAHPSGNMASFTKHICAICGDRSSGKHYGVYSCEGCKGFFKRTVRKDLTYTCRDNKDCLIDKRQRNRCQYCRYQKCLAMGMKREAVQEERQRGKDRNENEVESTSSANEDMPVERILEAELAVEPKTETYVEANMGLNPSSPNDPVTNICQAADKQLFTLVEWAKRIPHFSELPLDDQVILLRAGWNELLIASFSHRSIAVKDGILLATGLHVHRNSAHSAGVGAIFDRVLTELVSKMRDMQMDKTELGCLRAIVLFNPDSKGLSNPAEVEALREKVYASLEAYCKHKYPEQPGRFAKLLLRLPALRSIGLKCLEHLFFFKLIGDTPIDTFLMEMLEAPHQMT

[9] = Selectivity index, ratio of IC50 for human HCC1937 cells to IC50 for human MDA-MB-231 cells; type: functional
[10] = tested on: MDA-MB-231; experiment: Induction of cell cycle arrest in human MDA-MB-231 cells assessed as accumulation of cells at G2 phase at 15.625 nM incubated for 12 hrs by flow cytometry analysis (reference value: 15.91%); type: functional; conditions: 0.01562 µM
[11] = tested on: A549; experiment: Induction of apoptosis in human A549 cells assessed as late apoptotic cells at 250 nM incubated for 24 hrs by annexin V-FITC/PI staining based flow cytometry analysis (reference value: 5.28%); type: functional
[12] = tested on: A549; experiment: Induction of apoptosis in human A549 cells assessed as early apoptotic cells at 62.5 nM incubated for 24 hrs by annexin V-FITC/PI staining based flow cytometry analysis (reference value: 0.78%); type: functional
[13] = tested on: MDA-MB-231; experiment: Inhibition of colony formation in human MDA-MB-231 cells at 62.5 nM incubated for 48 hrs followed by replacement with normal culture medium and measured after […] by crystal violet staining based assay relative to control; type: functional
[14] = tested on: MDA-MB-231; experiment: Induction of mitotic arrest in human MDA-MB-231 cells assessed as chromosome misalignment at 62.5 nM incubated for 12 hrs by alpha-tubulin/DAPI staining based confocal microscopic analysis; type: functional, cell-based
[15] = Selectivity index, ratio of IC50 for human A549 cells to IC50 for human MDA-MB-231 cells; type: functional
[16] = Selectivity index, ratio of IC50 for human MCF7 cells to IC50 for human MDA-MB-231 cells; type: toxicity
[17] = tested on: A549; experiment: Induction of cell cycle arrest in wild type human A549 cells assessed as accumulation of cells at S phase at 125 nM incubated for 12 hrs by DAPI staining based flow cytometry analysis (reference value: 41.12 %); type: functional
[18] = tested on: MDA-MB-231; experiment: Upregulation of phosphorylated RXRalpha protein level in human MDA-MB-231 cells at 125 to 500 nM incubated for 24 hrs in presence of thermosensitive alkaline phosphatase by Western blot analysis; type: functional, cell-based; conditions: dose 125-500 nM
[19] = tested on: MDA-MB-231; experiment: Effect on Nur77 protein expression in human MDA-MB-231 cells at 7.8 to 500 nM measured after 24 hrs by Western blot analysis; type: functional, cell-based; conditions: dose 7.8-500 nM
[20] = tested on: MDA-MB-231; experiment: Induction of apoptosis in human MDA-MB-231 cells assessed as increase in cleaved PARP expression measured after 24 hrs by Western blot analysis; type: functional, cell-based; conditions: dose 7.8-500 nM
[21] = tested on: MDA-MB-231; experiment: Antitumor activity against human MDA-MB-231 cells xenografted in BALB/c nude mouse assessed as reduction in tumor volume at 25 mg/kg/day, ip administered for 15 days and measured once a day; type: functional, organism-based; conditions: time 15.0 day
[22] = tested on: MDA-MB-231; experiment: Induction of apoptosis in human MDA-MB-231 cells assessed as increase in cleaved PARP expression at 125 nM by Western blot analysis; type: functional, cell-based; conditions: time 1-24 hrs, TDE = time-dependent effect
[23] = Drug absorption in KM mouse at 25 mg/kg, po measured after 0.5 to 2 hrs; type: ADME, organism-based; conditions: in vivo, time 0.5-2 hrs
[24] = biological target: T2, Retinoic acid receptor RXR-alpha (Homo sapiens) (UniProt P19793); experiment: Antagonist activity at RXRalpha (unknown origin) transfected in human HeLa cells assessed as inhibition of CD3254- induced receptor transactivation by measuring remaining luciferase activity at 1 uM incubated for 24 hrs by dual luciferase reporter assay; type: cell-based; conditions: filed as antagonist
T2 sequence (whole entry): T1 sequence (P19793 whole entry)

[25] = tested on: A549; experiment: Induction of cell cycle arrest in human A549 cells assessed as accumulation of cells at G1 phase at 125 nM incubated for 12 hrs by flow cytometry analysis (reference value: 59.57%); type: functional
[26] = Drug absorption in KM mouse at 25 mg/kg, ip measured after 0.5 to 2 hrs; type: ADME, organism-based; conditions: in vivo, time 0.5-2 hrs
[27] = tested on: HeLa; experiment: Antiproliferative activity against human HeLa cells assessed as inhibition of cell proliferation incubated for 72 hrs by MTT assay; type: functional, cell-based
[28] = Cytotoxicity against human MCF-10A cells assessed as inhibition of cell proliferation incubated for 72 hrs by MTT assay; type: toxicity, cell-based
[29] = tested on: MDA-MB-231; experiment: Induction of apoptosis in human MDA-MB-231 cells assessed as dead cells at 125 nM incubated for 24 hrs by annexin V-FITC/PI staining based flow cytometry analysis (reference value: 0.69%); type: functional
[30] = tested on: MDA-MB-231; experiment: Antiproliferative activity against human MDA-MB-231 cells assessed as cell viability rate at 5 uM incubated for 72 hrs by MTT assay relative to control; type: functional

O=C(/C=C/c1ccccc1)Nc1cc(-c2ccnc(N3CCC(CO)CC3)c2)ccn1
IC50 [1]: 196 nM
IC50 [2]: 16 nM
Activity [3]: 82.2%
inhibition in vivo at 25 mg/kg/day [4]: 59.3%
Activity [5]: 3.98%
Activity [6]: 58.84%
Activity [7]: 85.88%
Kd [8]: 39.4 nM
Ratio IC50 [9]: 35.06
Activity [10]: 15.75%
Activity [11]: 21.4%
Activity [12]: 11.4%
inhibition at 0.0625 µM [13]: 100%
Activity [14]: Active
Ratio IC50 [15]: 12.56
Ratio IC50 [16]: 146.5
Activity [17]: 18.11%
Activity [18]: inactive
Activity [19]: inactive
Activity [20]: Dose-Dependent Effect
Activity [21]: Active
Activity [22]: Tde
Drug absorption [23]: Not Active
inhibition [24]: Active
Activity [25]: 16.45%
Drug absorption [26]: Active
IC50 [27]: 77 nM
IC50 at 72 h [28]: 18600 nM
Activity [29]: 2.78%
Activity [30]: 31.72%
